Test results published in patent US20100240612A1, “Prenylated Bisphosphonates as Anti-tuberculosis Agents” (priority 2009, published 2010).

Experiments:
[1] = system: Mycobacterium Smegmatis (ATCC 607); assay: Test B: Inhibition of Growth of the Bacterium M. Smegmatis; format: cell-based; conditions: grown in the presence of drug for 2 days, absorbance at 540 nm or CFU; result in words, data only in FIG. 3, versus Isoniazid
Protocol: Mycobacterium Smegmatis (ATCC 607) was obtained from American Type Culture Collection and cultured in 7H9 broth (Sigma) containing ADC (Sigma), 0.5% glycerol, and 0.05% Tween-80. Bacteria were grown to log phase and then diluted, aliquoted, and grown in the presence of indicated drugs for 2 days. Growth was measured as a function of optical absorbance at 540 nm using a spectrophotometer. Alternatively, aliquots of liquid cultures were spread onto agar containing plates, which were then grown for 2 days, after which the number of colony forming units (CFU) were counted and normalized per mL.

[2] = target: T1, mycobacterial polyprenyl synthase (RV2361c) (Mycobacterium tuberculosis, UniProt P9WFF7); assay: Test A: Inhibition of Mycobacterial Polyprenyl Synthase (RV2361c); format: biochemical; conditions: result in words, data only in FIG. 1/FIG. 2
T1 sequence (P9WFF7 1-296): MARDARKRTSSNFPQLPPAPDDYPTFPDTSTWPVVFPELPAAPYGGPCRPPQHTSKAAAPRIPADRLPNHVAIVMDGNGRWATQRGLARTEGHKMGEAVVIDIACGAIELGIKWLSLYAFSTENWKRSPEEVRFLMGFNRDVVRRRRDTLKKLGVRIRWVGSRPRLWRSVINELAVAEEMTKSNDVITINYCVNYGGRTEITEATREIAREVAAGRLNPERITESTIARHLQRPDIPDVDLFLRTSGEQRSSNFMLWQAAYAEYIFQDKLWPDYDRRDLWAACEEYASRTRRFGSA

Structure (SMILES) | inhibition of growth of the bacterium M. Smegmatis [1] | inhibition of purified mycobacterial polyprenyl synthase (RV2361c) [2]
COC(=O)c1ccccc1NC/C(C)=C/CC/C(C)=C/CC(P(=O)(OCOC(=O)C(C)(C)C)OCOC(=O)C(C)(C)C)P(=O)(OCOC(=O)C(C)(C)C)OCOC(=O)C(C)(C)C [compound 24] | inhibition of growth | –
CC(C)=CCc1ccc(CC(P(=O)([O-])[O-])P(=O)([O-])[O-])cc1.[Na+].[Na+].[Na+].[Na+] [compound 13, p-Prenyl-phenethylidene bisphosphonic acid tetra sodium salt] | – | inhibition
